Measurements as given in US7803930B2, “Antisense modulation of apolipoprotein B-expression” (Isis Pharmaceuticals, Inc., priority 2002, dated 2010).
In the oligonucleotide strings, read from the 5' end, every base follows the letter of its sugar. An asterisk marks phosphorothioate; unmarked linkages are phosphodiester. Other units and linkages are bracketed, terminal groups are in braces. A string of capitals states the bases alone. e = 2'-O-(2-methoxyethyl) (MOE); [5mC] = 5-methylcytosine; d = 2'-deoxy (DNA)

Test system: human apolipoprotein B mRNA
Assay: Inhibition of human apolipoprotein B mRNA levels in HepG2 cells, quantitative real-time PCR
Assay type: cell-based
Settings: for % INHIB 50 nm / % INHIB 150 nm / % INHIB / % Change in apolipoprotein B mRNA expression: HepG2 cells; for % INHIB (inhibition of human apolipoprotein B mRNA levels): HepG2 cells treated with 150 nM of compound, quantitative real-time PCR; for % Change in apolipoprotein B mRNA expression: 24 hour (Table 40)
Procedure: The human hepatoblastoma cell line HepG2 was obtained from the American Type Culture Collection (Manassas, Va.). HepG2 cells were routinely cultured in Eagle's MEM supplemented with 10% fetal calf serum, non-essential amino acids, and 1 mM sodium pyruvate (Gibco/Life Technologies, Gaithersburg, Md.). Cells were routinely passaged by trypsinization and dilution when they reached 90% confluence. Cells were seeded into 96-well plates (Falcon-Primaria #3872) at a density of 7000 cells/well for use in RT-PCR analysis.
When cells reached 80% confluency, they were treated with oligonucleotide. For cells grown in 96-well plates, wells were washed once with 200 μL OPTI-MEM™-1 reduced-serum medium (Gibco BRL) and then treated with 130 μL of OPTI-MEM™-1 containing 3.75 μg/mL LIPOFECTIN™ (Gibco BRL) and the desired concentration of oligonucleotide. After 4-7 hours of treatment, the medium was replaced with fresh medium. Cells were harvested 16-24 hours after oligonucleotide treatment.
Quantitation of apolipoprotein B mRNA levels was determined by real-time quantitative PCR using the ABI PRISM™ 7700 Sequence Detection System (PE-Applied Biosystems, Foster City, Calif.) according to manufacturer's instructions. This is a closed-tube, non-gel-based, fluorescence detection system which allows high-throughput quantitation of polymerase chain reaction (PCR) products in real-time. As opposed to standard PCR, in which amplification products are quantitated after the PCR is completed, products in real-time quantitative PCR are quantitated as they accumulate. This is accomplished by including in the PCR reaction an oligonucleotide probe that anneals specifically between the forward and reverse PCR primers, and contains two fluorescent dyes. A reporter dye (e.g., JOE, FAM, or VIC, obtained from either Operon Technologies Inc., Alameda, Calif. or PE-Applied Biosystems, Foster City, Calif.) is attached to the 5′ end of the probe and a quencher dye (e.g., TAMRA, obtained from either Operon Technologies Inc., Alameda, Calif. or PE-Applied Biosystems, Foster City, Calif.) is attached to the 3′ end of the probe. When the probe and dyes are intact, reporter dye emission is quenched by the proximity of the 3′ quencher dye. During amplification, annealing of the probe to the target sequence creates a substrate that can be cleaved by the 5′-exonuclease activity of Taq polymerase. […] With each cycle, additional reporter dye molecules are cleaved from their respective probes, and the fluorescence intensity is monitored at regular intervals by laser optics built into the ABI PRISM™ 7700 Sequence Detection System. In each assay, a series of parallel reactions containing serial dilutions of mRNA from untreated control samples generates a standard curve that is used to quantitate the percent inhibition after antisense oligonucleotide treatment of test samples.
PCR reagents were obtained from PE-Applied Biosystems, Foster City, Calif. RT-PCR reactions were carried out by adding 25 μL PCR cocktail (1× TAQMAN™ buffer A, 5.5 mM MgCl2, 300 μM each of DATP, dCTP and dGTP, 600 μM of dUTP, 100 nM each of forward primer, reverse primer, and probe, 20 Units RNAse inhibitor, 1.25 Units AMPLITAQ GOLD™, and 12.5 Units MuLV reverse transcriptase) to 96 well plates containing 25 μL total RNA solution. The RT reaction was carried out by incubation for 30 minutes at 48° C. Following a 10 minute incubation at 95° C. to activate the AMPLITAQ GOLD™, 40 cycles of a two-step PCR protocol were carried out: 95° C. for 15 seconds (denaturation) followed by 60° C. for 1.5 minutes (annealing/extension).
Gene target quantities obtained by real time RT-PCR are normalized using either the expression level of GAPDH, a gene whose expression is constant, or by quantifying total RNA using RiboGreen™ (Molecular Probes, Inc. Eugene, Oreg.). GAPDH expression is quantified by real time RT-PCR, by being run simultaneously with the target, multiplexing, or separately. […]

[1] = 50 nm oligonucleotide, variable deoxy gap position
[2] = 150 nm oligonucleotide, variable deoxy gap position
[3] = human apolipoprotein B mRNA, oligonucleotides targeting genomic sequence SEQ ID NO 334, averages from two experiments
[4] = Table 17 variable gap, 50 nM, averages from three experiments
[5] = Table 17 variable gap, 150 nM, averages from three experiments
[6] = Table 11 gene walk, 50 nM, averages from two experiments
[7] = Table 11 gene walk, 150 nM, averages from two experiments

Substance	% INHIB (inhibition of human apolipoprotein B mRNA levels) (averages from two experiments) [%]	% INHIB [3] [%]	other results
308650 (antisense GCCTCAGTCTGCTTCGCACC; 6-10-4 2'-MOE gapmer, phosphorothioate, chemistry not fully specified) [compound 308650]	–	–	% INHIB 50 nm [1]: 74%; % INHIB 150 nm [2]: 94%
281627 (antisense e[5mC]*e[5mC]*eA*eG*eA*dG*dA*dG*d[5mC]*dG*dA*dG*dT*dT*dT*e[5mC]*e[5mC]*e[5mC]*eA*eT) [compound 281627]	82	–	–
301145 (eA*eA*eG*eG*eA*d[5mC]*d[5mC]*dT*dT*d[5mC]*dA*dG*d[5mC]*dA*dA*eA*eG*eG*eT*eA; antisense) [compound 301145]	–	36	–
308654 (antisense GCCTCAGTCTGCTTCGCGCC; 8-10-2 2'-MOE gapmer, phosphorothioate, chemistry not fully specified) [compound 308654]	–	–	% INHIB 50 nm [4]: 81%; % INHIB 150 nm [5]: 90%
281645 (eT*e[5mC]*eT*eG*e[5mC]*dA*d[5mC]*dT*dG*dA*dA*dG*dT*d[5mC]*dA*e[5mC]*eG*eG*eT*eG; antisense) [compound 281645]	78	–	–
308646 (antisense AGGTTACCAGCCACATGCAG; 4-10-6 2'-MOE gapmer, phosphorothioate, chemistry not fully specified) [compound 308646]	–	–	% INHIB 50 nm [1]: 50%; % INHIB 150 nm [2]: 76%
308603 (eG*eT*e[5mC]*eA*eT*dG*dG*dT*dA*dG*d[5mC]*d[5mC]*dT*d[5mC]*dA*eG*eT*e[5mC]*eT*eG; antisense) [compound 308603]	–	–	% INHIB 50 nm [6]: 56%; % INHIB 150 nm [7]: 97%
147780 (antisense e[5mC]*e[5mC]*eG*e[5mC]*eA*dG*dG*dT*d[5mC]*d[5mC]*d[5mC]*dG*dG*dT*dG*eG*eG*eA*eA*eT) [compound 147780]	–	–	% INHIB (Table 1, 150 nM, averages from two experiments): 40%
270998 (antisense e[5mC]*eG*e[5mC]*eT*eG*dA*dT*d[5mC]*d[5mC]*d[5mC]*dT*d[5mC]*dG*d[5mC]*d[5mC]*eA*eT*eG*eT*eT) [compound 270998]	1	–	–
308612 (eG*eG*eT*eT*eA*d[5mC]*d[5mC]*dA*dG*d[5mC]*d[5mC]*dA*d[5mC]*dA*dT*eG*e[5mC]*eA*eG*e[5mC]; antisense) [compound 308612]	–	–	% INHIB 50 nm [6]: 75%; % INHIB 150 nm [7]: 90%
301022 (eG*eG*e[5mC]*eG*eG*dG*dT*d[5mC]*d[5mC]*dA*dT*d[5mC]*dG*d[5mC]*d[5mC]*eA*eG*e[5mC]*eT*eG; antisense) [compound 301022]	69	–	–
271041 (e[5mC]*e[5mC]*eA*eT*eA*dT*d[5mC]*d[5mC]*dA*dT*dG*d[5mC]*d[5mC]*d[5mC]*dA*e[5mC]*eG*eG*eT*eG; antisense) [compound 271041]	37	–	–
271020 (antisense eT*eT*eG*eA*eA*dT*d[5mC]*d[5mC]*dA*dG*dG*dA*dT*dG*d[5mC]*eA*eG*eT*eA*e[5mC]) [compound 271020]	35	–	–
301119 (antisense eA*e[5mC]*eA*eT*eA*d[5mC]*dA*dA*dA*dT*dG*dG*d[5mC]*dA*dA*eT*eA*eG*eG*e[5mC]) [compound 301119]	–	33	–
332773 (antisense GCCTCATTATTATTCGCACC; sugars from the 5' end e5 d10 e5, all phosphorothioate, methylation of C not given here) [compound 332773]	–	–	% Change in apolipoprotein B mRNA expression (50 nM): +75%; % Change in apolipoprotein B mRNA expression (150 nM): +80%
281630 (antisense e[5mC]*eG*eT*e[5mC]*e[5mC]*dA*dG*dT*dA*dA*dG*d[5mC]*dT*d[5mC]*d[5mC]*eA*e[5mC]*eG*e[5mC]*e[5mC]) [compound 281630]	82	–	–

Substance	% INHIB (inhibition of human apolipoprotein B mRNA levels) (averages from two experiments) [%]	% INHIB [3] [%]	other results
271005 (antisense eG*eG*e[5mC]*eA*e[5mC]*d[5mC]*d[5mC]*dA*dT*d[5mC]*dA*dG*dA*dA*dG*e[5mC]*eA*eG*e[5mC]*eT) [compound 271005]	32	–	–
301072 (eA*eT*eT*eT*eT*dA*dA*dA*dT*dT*dA*d[5mC]*dA*dG*dT*eA*eG*eA*eT*eA; antisense) [compound 301072]	–	43	–
301050 (eA*eT*eT*eT*e[5mC]*d[5mC]*dT*d[5mC]*dT*dT*d[5mC]*dT*dG*dT*dA*eA*eG*eA*e[5mC]*eA; antisense) [compound 301050]	–	22	–
301194 (antisense eG*eT*eT*e[5mC]*eT*d[5mC]*dA*dT*dG*dT*dT*dT*dA*d[5mC]*dT*eA*eA*eT*eG*e[5mC]) [compound 301194]	–	40	–
301185 (antisense eT*eG*e[5mC]*eT*eT*d[5mC]*dG*d[5mC]*dA*d[5mC]*d[5mC]*dT*dG*dG*dA*e[5mC]*eG*eA*eG*eT) [compound 301185]	–	51	–
301138 (eT*eT*eG*e[5mC]*eT*dA*dG*d[5mC]*dT*dT*d[5mC]*dA*dA*dA*dG*eT*eG*eG*eA*eA; antisense) [compound 301138]	–	44	–
281605 (antisense e[5mC]*eT*eT*e[5mC]*e[5mC]*dA*dA*dG*d[5mC]*d[5mC]*dA*dA*dT*d[5mC]*dT*e[5mC]*eG*eA*eT*eG) [compound 281605]	82	–	–
301171 (antisense eT*eA*eT*eT*eT*dA*dA*dT*dT*dT*dA*d[5mC]*dT*dG*dA*eG*eA*eA*eA*e[5mC]) [compound 301171]	–	7	–
281635 (antisense eA*eT*eA*e[5mC]*eA*d[5mC]*dT*dG*d[5mC]*dA*dA*d[5mC]*dT*dG*dT*eG*eG*e[5mC]*e[5mC]*eT) [compound 281635]	89	–	–
308639 (GCCTCAGTCTGCTTCGCGCC; all C 5-methyl, all phosphorothioate, sugars by position not given here; further chemistry not fully specified) [compound 308639]	–	–	% INHIB 50 nm [4]: 86%; % INHIB 150 nm [5]: 94%
301156 (eT*e[5mC]*eT*eT*eT*d[5mC]*dA*dA*dA*d[5mC]*dT*dG*dG*d[5mC]*dT*eA*eG*eG*e[5mC]*eA; antisense) [compound 301156]	–	39	–
281649 (eG*e[5mC]*e[5mC]*eA*eT*d[5mC]*d[5mC]*dT*dT*d[5mC]*dT*dG*dA*dG*dT*eT*e[5mC]*eA*eG*eA; antisense) [compound 281649]	76	–	–
301218 (antisense eA*e[5mC]*eA*eT*eT*dT*dT*dA*dT*d[5mC]*dA*dA*dT*dG*d[5mC]*e[5mC]*e[5mC]*eT*e[5mC]*eG) [compound 301218]	–	–	% INHIB (Table 15, 150 nM, averages from two experiments): 23%
301121 (antisense eT*eT*eA*eT*eG*dA*dT*dA*dG*d[5mC]*dT*dA*d[5mC]*dA*dG*eA*eA*eT*eA*eA) [compound 301121]	–	29	–
308663 (antisense AGTCTGCTTCGCGCCTTCTG; 8-10-2 2'-MOE gapmer, phosphorothioate, chemistry not fully specified) [compound 308663]	–	–	% INHIB 50 nm [4]: 44%; % INHIB 150 nm [5]: 84%
